Assay results published in patent publication US10974036B2, “Implantable device for long-term delivery of drugs” (Delpor, Inc., priority 2009, dated 2021).
Values after ≈ are worked out from the molar mass of the structure shown. Values joined by “and” are separate entries in the source; they are usually repeats but may differ in a detail not shown here. Identical values can stand only once. Like-named read-outs stand apart in the source and are kept apart here.

Key:
[1] = cited from earlier work
in vivo = settings: human, plasma, iv
[2] = cited from earlier work; remark: listed apart in the source
[3] = In vitro release of risperidone, Franz-type diffusion cells with different porous partitions (Example 1); format: physicochemical; settings: after 3-4 day equilibration phase, suspension with PLGA, room temperature
Text: As described in Example 1, typical Franz-type diffusion cells were fitted with a porous partition separating a donor chamber from a receptor chamber. The partitions were selected to span a wide range of pore sizes (i.e., molecular weight cut-off or “MWCO”, values or nominal pose diameter) The porous partitions selected for use in this study had molecular weight cut-off values of 100,000 Daltons and 3,000 Daltons. In addition, a porous partition in the form of a […] polyvinyldenefluoride membrane filter (Durapore®) was used.
Sustained, substantially zero-order release rate was obtained, as best seen in FIG. 7B.
Typical Franz-type diffusion cells were fitted with porous partitions separating a donor chamber from a receptor chamber. The porous partitions were membranes with pore sizes of 3,000 Daltons molecular weight cut-off, 100,000 Daltons molecular weight cut-off and a 0.45 micron polyvinyldenefluoride membrane filter (Durapore®). […] The cells were maintained at room temperature. […] Buffer was replaced each day.

[4] = PBS, 37° C.
Method: In yet another study, devices were prepared as described herein an tested in vitro and in vivo.
Two groups of devices (n=6) were prepared. The main body of each device consisted of a cylindrical titanium tube, definining an internal reservoir. The tubes were 35 mm in length, with an outer diameter (OD) of 4.3 mm and an inner diameter (ID) of about 3 mm (Peridot Manufacturing, Pleasanton, Calif.). Both ends of each tube were tapered (lathed) so as to accept a press cap which served to retain a porous partition, as illustrated in FIGS. 4-5. The first group of devices was fitted on one end with a titanium sintered frit having a diameter 3.5 mm, a depth 0.5 mm, and a 5 micron nominal particle retention size (Applied Porous Materials, Farmington, Conn.). The frit was secured in each tube by placing the tube horizontally in a holder, and then positioning over the open end, in sequence, the frit, an o-ring and the press cap.
A 2.5 mm stainless steel ball was placed in the reservoir to provide mixing. A second frit was sealed to the remaining open end of the reservoir using the same procedure as described above for the other end. […]
Both groups of devices were equally split, each subgroup of 3 devices destined for either in vitro or in vivo testing. In vitro release rate was determined by submerging the devices in 1 mL PBS held in screw cap cryo-vials. […]

[5] = In vivo plasma concentration after subcutaneous implantation of devices in rats (Example 5, FIG. 12B); settings: subcutaneous device containing risperidone only, first week
Method: For in vivo experiments, rats were anesthetized and devices placed subcutaneously in the dorsum, lateral to the midline, using a trocar. Whole blood samples were obtained by tail vein venous puncture. Plasma was immediately separated from formed elements by centrifugation. […] The lower limit of quantitation was 0.10 ng/mL.

[6] = 100 mg risperidone, PBS pH 7.4, 37° C.
Method: Two groups of drug delivery devices were assembled as follows. Cylindrical titanium tubes, 4 mm in diameter and 35 mm in length, were prepared. […] The reservoirs of the devices were filled with phosphate buffered saline (PBS) at pH 7.4 under reduced pressure. Each of the devices in Group B was fitted with two regenerated cellulose membranes (5000 Daltons molecular weight cut off) at each end of the cylindrical tube by sandwiching the membrane between an o-ring and titanium frit (5 micron pores), as illustrated in FIGS. 5A-5B. The devices in Group A were identical, except the cellulose membrane was omitted, as illustrated in FIGS. 4A-4B. The devices were then placed individually in tubes containing approximately 1 mL PBS. The tubes were placed on a rotating rack (1 revolution per hour) at 37° C.
Buffer was diluted to 20-50 micrograms/mL prior to measurement to insure that the concentration was within the linear range of the UV measurement. Buffer was replaced each day.

| SMILES | Half-life ([1]; in vivo) [h] | Target Steady state plasma conc ([1]; in vivo) [ng/mL] | CL(L/hr) (iv) [1] | clearance (in vivo) [mL/min] | Bioavailability oral [1] [%] | Water solubility (mg/mL) acidic pH ([2]; acidic pH) [mg/mL] | Water solubility (mg/mL) neutral pH [2] [mg/mL] | further results |
| --- | --- | --- | --- | --- | --- | --- | --- | --- |
| O=C1CCc2ccc(OCCCCN3CCN(c4cccc(Cl)c4Cl)CC3)cc2N1 [Aripiprazole, aripiprazole] | 3 | 100 | 2.37 L/h | 39.6 | – | – | – | – |
| CN1CC2c3ccccc3Oc3ccc(Cl)cc3C2C1 (stereo not shown) [Asenapine, asenapine] | 24 | 2.1 | 52 L/h | 867 | < 2 | 13 | 3.0 | plasma clearance ([1]; in vivo): 52 L/h; Bioavailability sublingual ([1]; sublingual): 30%; solubility ([2]; in 0.1N HCl): 13000 µg/mL (≈ 45.5 mM); water solubility ([2]; pH 7-7.4): 3000 µg/mL (≈ 10.5 mM); water solubility ([2]; pH 7.0): 3000 µg/mL (≈ 10.5 mM) |
| O=C(CCCN1CCC(O)(c2ccc(Cl)cc2)CC1)c1ccc(F)cc1 [Haloperidol, haloperidol] | 29 | 2 | 42 L/h and 22 L/h | 667 | 65 | 4.2 | 0.025 | – |
| Cc1cc2c(s1)Nc1ccccc1N=C2N1CCN(C)CC1 [Olanzapine, olanzapine] | – | 30 | – | – | 60 | – | – | – |
| Cc1nc2n(c(=O)c1CCN1CCC(c3noc4cc(F)ccc34)CC1)CCCC2O (stereo not shown) [Paliperidone, paliperidone] | 24 | – | – | – | – | – | 0.54 | Water solubility acidic pH relative to neutral pH ([2]; acidic pH): 100 x neutral |
| Cc1nc2n(c(=O)c1CCN1CCC(c3noc4cc(F)ccc34)CC1)CCCC2 [Risperidone, risperidone] | – | 20 | – | – | – | – | – | release rate (5 mg 85:15 PLGA in suspension (FIG. 9)): 0.25 mg/day; release rate (10 mg 85:15 PLGA in suspension (FIG. 9)): 0.43 mg/day; release rate (15 mg 85:15 PLGA in suspension (FIG. 9)): 0.64 mg/day; release rate of risperidone ([3]; 0.45 polyvinyldenefluoride membrane filter (Durapore)): 70 µg/day; release rate of risperidone ([3]; porous partition 3,000 Dalton molecular weight cut-off): 100 µg/day; release rate of risperidone ([3]; porous partition 100,000 Dalton molecular weight cut-off): 200 µg/day; in vitro release rate ([4]; devices with PLGA (15 mg 50:50 and 50 mg 85:15), maintained for 30 days): above 0.4 mg/day; in vitro release rate ([4]; devices without PLGA, throughout 30 days): less than 0.05 mg/day; plasma levels of risperidone (plus 9-hydroxyrisperidone) [5]: barely detectable; average release rate ([6]; devices with 5 mg 50:50 PLGA and 15 mg 85:15 PLGA (Group B)): 1 to 1.2 mg/day; release rate ([6]; devices without PLGA (Group A)): less than 0.05 mg/day |
